Source: article PMC6017115, “Inhibitory Effect of Sauchinone on UDP-Glucuronosyltransferase (UGT) 2B7 Activity” (Molecules : A Journal of Synthetic Chemistry and Natural …, 2018)

Assays:
[1] = biological target: T1, UGT1A6 (Homo sapiens, UniProt P19224); test: Enzyme kinetic assay (Ki, Dixon plot) of UGT1A6-mediated serotonin glucuronidation; type: in vitro ADME; settings: for inhibition mode on UGT1A6: Dixon plot, visual inspection
T1 construct: tissue Corning Life Sciences 452156; host or cells: pooled human liver microsomes
T1 sequence (P19224 27-532): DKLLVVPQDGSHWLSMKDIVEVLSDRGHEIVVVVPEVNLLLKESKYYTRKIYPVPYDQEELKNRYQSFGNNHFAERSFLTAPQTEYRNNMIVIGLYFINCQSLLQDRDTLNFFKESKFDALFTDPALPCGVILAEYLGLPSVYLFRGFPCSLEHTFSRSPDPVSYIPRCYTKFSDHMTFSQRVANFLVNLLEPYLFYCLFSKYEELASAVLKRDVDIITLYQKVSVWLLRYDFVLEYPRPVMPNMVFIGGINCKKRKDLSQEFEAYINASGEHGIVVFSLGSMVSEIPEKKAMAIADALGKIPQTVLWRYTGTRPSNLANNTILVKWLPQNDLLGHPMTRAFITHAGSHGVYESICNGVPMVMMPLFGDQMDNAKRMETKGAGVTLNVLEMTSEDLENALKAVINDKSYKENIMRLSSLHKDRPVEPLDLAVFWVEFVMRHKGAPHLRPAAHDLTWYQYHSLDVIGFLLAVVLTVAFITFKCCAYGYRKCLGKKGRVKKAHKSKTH
Protocol: (§1) Inhibitory effects of sauchinone on UGT1A1, 1A3, 1A4, 1A6, 1A9, and 2B7 activities were evaluated using HLMs. […] Spiked volume of UGT cocktail set was 1% (v/v) of total volume of mixture. […] The reaction was initiated by adding 5 mM UDPGA to a final volume of 150 μL and incubated at 37 °C for 15 or 60 min in a thermomixer at 500 rpm. Each reaction was stopped by adding 150 μL of ice-cold methanol containing 50 ng/mL IS. These mixtures were then centrifuged (12,000 rpm for 10 min at 4 °C) and 5 μL of the supernatant was injected into a UPLC-MS/MS system. […] Their IC50 values were compared to that of sauchinone. All inhibitors were dissolved in methanol (except for hecogenin, which was dissolved in dimethyl sulfoxide) and serially diluted to the required concentrations using the same solutions. The final concentration of organic solvent of inhibitors was 1% (v/v). All studies were performed in triplicate and mean values were used in the analysis. The half maximal inhibition constant (IC50) of sauchinone on UGT isoforms was estimated using GraphPad program.
(§2) Based on IC50 values, Ki values of sauchinone for UGT1A6 and 2B7 were determined. Concentrations of 0–200 μM of sauchinone were used. Other procedures were similar to those mentioned above in the study of reversible inhibitory effects of sauchinone. Inhibitory characteristics of sauchinone were initially estimated by nonlinear least squares regression analysis and Ki values were determined by Dixon plots.

[2] = biological target: T2, Ugt1a9 (Mus musculus, UniProt Q62452); test: Inhibition of Ugt1a9 (propofol) in mice liver microsomes; type: in vitro ADME; settings: pH 7.6, probe propofol (100 μM, in UGT substrate cocktail), read-out: IC50 of Ugt1a9-catalyzed propofol
T2 construct: from tissue; host or cells: mouse liver microsomes prepared in house
T2 sequence (Q62452 24-528): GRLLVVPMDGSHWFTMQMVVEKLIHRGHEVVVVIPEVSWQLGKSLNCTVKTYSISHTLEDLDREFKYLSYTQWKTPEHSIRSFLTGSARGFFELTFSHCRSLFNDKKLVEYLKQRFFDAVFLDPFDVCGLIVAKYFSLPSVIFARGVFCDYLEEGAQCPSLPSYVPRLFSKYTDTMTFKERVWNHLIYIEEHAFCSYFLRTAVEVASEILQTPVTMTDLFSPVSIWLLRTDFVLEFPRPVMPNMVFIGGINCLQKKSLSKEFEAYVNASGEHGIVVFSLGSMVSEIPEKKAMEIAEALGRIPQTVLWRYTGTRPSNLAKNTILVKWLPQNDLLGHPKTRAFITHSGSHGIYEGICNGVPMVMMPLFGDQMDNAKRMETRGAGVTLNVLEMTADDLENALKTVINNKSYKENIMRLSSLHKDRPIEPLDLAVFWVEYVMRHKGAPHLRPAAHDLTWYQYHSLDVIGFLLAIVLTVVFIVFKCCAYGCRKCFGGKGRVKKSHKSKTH
Protocol: Their IC50 values were compared to that of sauchinone. […] Mice were sacrificed and then livers were removed and rinsed with saline. After weighing the livers, they were homogenized with a four-fold volume of ice-cold homogenizing buffer (0.154 M KCl, 50 mM Tris-base, 1 mM EDTA, pH 7.4). After centrifugation for 35 min at 9000× g and 4 °C, the supernatants were centrifuged for 95 min at 100,000× g and at 4 °C. The supernatants were discarded and the pellets were homogenized again with ice-cold homogenizing buffer. These aliquots were stored at −80 °C. The subsequent process to evaluate the inhibitory effects of sauchinone on UGT activities in MLM was the same as those using HLM. UGT-mediated activities in the presence of sauchinone as an inhibitor were expressed as percentages of corresponding control values (in absence of sauchinone). From percentages of control activity versus inhibitor concentrations, a sigmoid shaped curve was fitted to the data and IC50 as an enzyme inhibition parameter was calculated by fitting the Hill equation to the data using GraphPad Prism 5 (GraphPad Software Inc., San Diego, CA, USA).

[3] = biological target: T3, UGT2B7 (Homo sapiens, UniProt P16662); test: Enzyme kinetic assay (Ki, Dixon plot) of UGT2B7-mediated zidovudine glucuronidation; settings: for inhibition mode on UGT2B7: Dixon plot, visual inspection
T3 sequence (P16662 24-529): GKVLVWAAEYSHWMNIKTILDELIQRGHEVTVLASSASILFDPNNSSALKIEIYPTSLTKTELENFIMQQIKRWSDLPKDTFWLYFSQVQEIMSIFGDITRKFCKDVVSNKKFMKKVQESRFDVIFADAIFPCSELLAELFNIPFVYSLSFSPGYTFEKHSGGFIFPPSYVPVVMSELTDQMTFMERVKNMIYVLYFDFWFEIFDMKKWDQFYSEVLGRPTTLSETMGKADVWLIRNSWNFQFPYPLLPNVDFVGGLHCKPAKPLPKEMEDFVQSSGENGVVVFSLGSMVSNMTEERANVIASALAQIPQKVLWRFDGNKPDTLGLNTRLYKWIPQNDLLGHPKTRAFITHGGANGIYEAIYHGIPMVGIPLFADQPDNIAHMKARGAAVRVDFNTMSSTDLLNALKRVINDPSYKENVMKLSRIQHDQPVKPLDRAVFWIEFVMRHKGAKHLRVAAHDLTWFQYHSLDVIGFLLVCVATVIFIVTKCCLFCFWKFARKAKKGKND
Protocol: as §1, §2

`C[C@@H]1[C@H]2c3cc4c(cc3O[C@@]35OCOC3=CC(=O)[C@H](C[C@H]1C)[C@@H]25)OCO4` [Sauchinone] was tested, and the Ki [1] was 1080 nM, the “inhibition mode on UGT1A6” value [1] was “noncompetitively inhibited” and the “inhibition mode on UGT1A6” value ([1]; listed as sauchinone) was “noncompetitive inhibition mode”. For the same molecule, the “Vmax for UGT1A6-mediated serotonin glucuronidation with inhibitor” value ([1]; sauchinone as inhibitor at 50 μM (decrease from 174 at 0 μM)) was 6.36 μM/min/mg protein, the IC50 [2] was 29800 nM and the Ki [3] was 524 nM. For the same molecule, the “inhibition mode on UGT2B7” value [3] was “noncompetitively inhibited”, the “inhibition mode on UGT2B7” value ([3]; listed as sauchinone) was “noncompetitive inhibition mode” and the “Vmax for UGT2B7-mediated zidovudine glucuronidation with inhibitor” value ([3]; sauchinone as inhibitor at 50 μM (decrease from 31.5 at 0 μM)) was 0.495 μM/min/mg protein.
